Common to all, as to test: Gal4 hybrid reporter gene assay
Holding throughout (format): cell-based
What all share (details): agonist mode; printed as 'inactive' (no significant transactivation at 30 μM)

One test concerns the target T1, PPARα (Homo sapiens, UniProt Q07869).
T1 sequence (Q07869 167-468 limits assumed): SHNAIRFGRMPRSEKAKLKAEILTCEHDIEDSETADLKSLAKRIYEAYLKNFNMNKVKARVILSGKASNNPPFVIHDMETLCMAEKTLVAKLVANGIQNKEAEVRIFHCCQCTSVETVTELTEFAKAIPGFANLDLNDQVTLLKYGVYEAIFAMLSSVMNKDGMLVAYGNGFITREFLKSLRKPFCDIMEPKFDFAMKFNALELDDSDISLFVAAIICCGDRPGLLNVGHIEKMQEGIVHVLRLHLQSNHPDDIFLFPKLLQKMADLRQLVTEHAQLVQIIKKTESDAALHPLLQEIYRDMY

The target of the next test is T2, PPARδ (Homo sapiens, UniProt Q03181).
T2 sequence (Q03181 139-441 limits assumed): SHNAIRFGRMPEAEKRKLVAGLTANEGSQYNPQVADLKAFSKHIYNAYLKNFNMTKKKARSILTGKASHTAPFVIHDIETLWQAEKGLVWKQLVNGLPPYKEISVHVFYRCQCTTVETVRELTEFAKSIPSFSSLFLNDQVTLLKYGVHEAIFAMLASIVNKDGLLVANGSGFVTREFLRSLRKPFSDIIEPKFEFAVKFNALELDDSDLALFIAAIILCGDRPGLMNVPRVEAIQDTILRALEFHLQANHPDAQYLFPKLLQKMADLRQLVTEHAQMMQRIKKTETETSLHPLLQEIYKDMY

Another test concerns the target T3, RXRα (Homo sapiens, UniProt P19793).
T3 sequence (P19793 225-462 limits assumed): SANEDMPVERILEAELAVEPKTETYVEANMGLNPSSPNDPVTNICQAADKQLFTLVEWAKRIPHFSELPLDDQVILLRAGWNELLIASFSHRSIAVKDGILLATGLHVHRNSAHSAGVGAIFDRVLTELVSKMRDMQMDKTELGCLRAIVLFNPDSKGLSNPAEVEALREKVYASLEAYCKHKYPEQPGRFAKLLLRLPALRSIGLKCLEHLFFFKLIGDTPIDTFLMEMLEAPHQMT

Another test concerns the target T4, RXRβ (Homo sapiens, UniProt P28702).
T4 sequence (P28702 296-533 limits assumed): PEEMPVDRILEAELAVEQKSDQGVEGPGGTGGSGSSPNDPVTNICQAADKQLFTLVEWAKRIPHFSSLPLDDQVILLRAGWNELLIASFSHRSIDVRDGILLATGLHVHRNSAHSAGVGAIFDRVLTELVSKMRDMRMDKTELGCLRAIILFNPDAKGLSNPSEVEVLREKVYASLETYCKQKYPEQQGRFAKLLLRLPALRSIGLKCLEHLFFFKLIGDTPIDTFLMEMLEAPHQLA

The next test has as its target T5, RXRγ (Homo sapiens, UniProt P48443).
T5 sequence (P48443 231-459 limits assumed): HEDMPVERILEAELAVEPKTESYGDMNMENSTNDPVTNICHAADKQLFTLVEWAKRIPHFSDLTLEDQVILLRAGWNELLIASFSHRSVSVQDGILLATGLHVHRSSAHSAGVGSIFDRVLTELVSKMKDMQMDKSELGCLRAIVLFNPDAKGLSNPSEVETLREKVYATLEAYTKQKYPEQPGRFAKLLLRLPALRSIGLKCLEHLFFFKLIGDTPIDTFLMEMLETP

As usually defined, the EC50 is the concentration that produces a half-maximal response. Regarding `O=C(O)c1cccc(NC(=O)c2ccc(-c3ccccc3)s2)c1` [compound 1, design 1], the EC50 on PPARα and at PPARδ was more than 30 µM each time.
Regarding `O=C(O)c1ccc(-c2cc(F)ccc2OCc2ccc(F)cc2)c(C(F)(F)F)c1` [compound 2, design 2], the concentration giving a half-maximal response (EC50) at PPARα and on PPARδ was more than 30 µM in each case.
Take `O=C(O)c1ccc(-c2cccc(O)c2)cc1OC1CCCC1` [compound 3, design 3]: the EC50 at RXRα, on PPARδ, at RXRβ and on RXRγ was more than 30 µM in each case.
